TGI and GI50 data for 15 molecules are collected here from PubChem BioAssay (NCI).

Among the test systems are A498 renal; T-47D breast; COLO 205 colon; SK-OV-3 ovarian; MDA-N; SF-295 CNS; SF-268 CNS; U251 CNS; IGROV1 ovarian; SK-MEL-28 melanoma.
What all share (test): NCI-60 cell line screen, 48 h

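Following 48 hours of exposure in 96-well plates, responses at five concentrations were used to interpolate endpoints linearly. GI50 = concentration required for 50% inhibition of growth. At the TGI there is no net growth.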

Take `CC(=S)N=Cc1c(O)cc(C)oc1=O`: the TGI in the assay with A498 renal, in the assay with T-47D breast, with COLO 205 colon, with SK-OV-3 ovarian, in the assay on MDA-N and with SF-295 CNS was greater than 100 µM in each case. For the same molecule, the TGI in the assay on SF-268 CNS, in the assay on U251 CNS and with IGROV1 ovarian was greater than 100 µM each time.

In the case of `CC1(C(=O)O)CCCC1C(=O)O` (configuration not stated), the TGI in the assay with SK-MEL-28 melanoma, with A498 renal, in the assay on T-47D breast, with MDA-N, with SF-295 CNS and with SF-268 CNS was greater than 100 µM throughout. Also, the TGI in the assay on U251 CNS and with IGROV1 ovarian was greater than 100 µM in each case.

For the molecule `N#Cc1c(-c2ccc(F)cc2)nc(N/N=C/c2c[nH]c3ccccc23)nc1N1CCOCC1`, the GI50 with SK-MEL-28 melanoma was 1.92 µM; in the assay with A498 renal, 1.33 µM; with T-47D breast, 9.16 µM; in the assay on COLO 205 colon, 2.37 µM; in the assay with SK-OV-3 ovarian, 8.61 µM; in the assay with SF-295 CNS, 1.89 µM. In addition, the GI50 is 17 µM with SF-268 CNS, 2.16 µM in the assay with U251 CNS and 12.8 µM in the assay with IGROV1 ovarian. Also, the TGI in the assay with SK-MEL-28 melanoma amounted to 4.04 µM; with A498 renal, 11.5 µM; with T-47D breast, 40 µM; in the assay on COLO 205 colon it was 18.2 µM; with SK-OV-3 ovarian it was 38.9 µM; in the assay with SF-295 CNS, 4.29 µM. Moreover, the figures for the TGI in the assay on SF-268 CNS, in the assay on U251 CNS and in the assay on IGROV1 ovarian were greater than 100 µM, 17.7 µM and 79.7 µM, respectively.

Take `CCC(C(=O)c1ccc(OC)c(OC)c1)N(C(=O)C(F)(F)F)C(C)c1ccccc1` (configuration not stated): the TGI in the assay on SK-MEL-28 melanoma, in the assay on T-47D breast, in the assay on COLO 205 colon, with SK-OV-3 ovarian, in the assay with MDA-N and with SF-295 CNS was greater than 100 µM throughout. In addition, the TGI in the assay with SF-268 CNS, in the assay with U251 CNS and with IGROV1 ovarian was greater than 100 µM throughout.

Take `O=C(Cc1ccc([N+](=O)[O-])cc1)OCC#CCOC(=O)Cc1ccc([N+](=O)[O-])cc1`: the TGI in the assay on T-47D breast, in the assay on SK-OV-3 ovarian, in the assay with MDA-N, in the assay on SF-295 CNS, in the assay with SF-268 CNS and with U251 CNS was greater than 10 µM throughout. Moreover, in the assay with IGROV1 ovarian, the TGI is greater than 10 µM.

As to `Nc1ccc2[nH]c(-c3cccc(Cl)c3)cc(=O)c2c1`, the TGI was greater than 100 µM in the assay on SK-MEL-28 melanoma; greater than 100 µM with T-47D breast; greater than 100 µM with COLO 205 colon; greater than 100 µM with SK-OV-3 ovarian; 70.4 µM in the assay with U251 CNS; greater than 100 µM with IGROV1 ovarian.

Regarding `COc1ccc2cc(NC(=O)N/N=C\c3ccc(Cl)cc3)ccc2c1`, the TGI in the assay on SK-MEL-28 melanoma, with COLO 205 colon, in the assay with SK-OV-3 ovarian, in the assay on MDA-N, with SF-295 CNS and in the assay on SF-268 CNS was greater than 100 µM in each case. Further, the TGI in the assay with U251 CNS and with IGROV1 ovarian was greater than 100 µM in each case.

`O=c1[nH]nc(-c2ccccc2)c2[nH]c(-c3ccccc3)cc12`: the TGI in the assay with T-47D breast, in the assay on COLO 205 colon, in the assay on SK-OV-3 ovarian, in the assay on MDA-N, in the assay with SF-295 CNS and in the assay on SF-268 CNS was greater than 100 µM each time. The TGI in the assay with IGROV1 ovarian was greater than 100 µM.

In the case of `CN(C)S(=O)(=O)Nc1nnc(S(N)(=O)=O)s1`, the TGI in the assay with SK-MEL-28 melanoma, in the assay with A498 renal, with T-47D breast, in the assay on COLO 205 colon, in the assay with SK-OV-3 ovarian and with SF-295 CNS was greater than 100 µM each time. Also, the TGI in the assay with SF-268 CNS, with U251 CNS and with IGROV1 ovarian was greater than 100 µM each time.

In the case of `Brc1cccc(N=NN2CCCC2)c1`, the TGI with A498 renal, in the assay on T-47D breast, in the assay on COLO 205 colon, in the assay with SK-OV-3 ovarian, in the assay with MDA-N and in the assay on SF-295 CNS was greater than 100 µM each time. The TGI in the assay on SF-268 CNS, with U251 CNS and in the assay on IGROV1 ovarian was greater than 100 µM each time.

`CCCCc1ccc(Nc2nc3c(ncn3COCCO)c(=O)[nH]2)cc1`: the TGI in the assay with A498 renal, with T-47D breast, in the assay with COLO 205 colon, in the assay on SK-OV-3 ovarian, in the assay on MDA-N and in the assay on SF-295 CNS was greater than 100 µM each time. Moreover, the TGI in the assay with SF-268 CNS, in the assay on U251 CNS and in the assay on IGROV1 ovarian was greater than 100 µM throughout.

Take `CC1(C)OCC2OC3([C@H]4OC(C)(C)O[C@@H]4CO)OC(C)(C)OC3C2O1` (some centres not stated): the TGI with SK-MEL-28 melanoma, with A498 renal, in the assay on T-47D breast, in the assay on COLO 205 colon, with MDA-N and in the assay with SF-295 CNS was greater than 100 µM in each case. For the same molecule, the TGI in the assay on U251 CNS and in the assay on IGROV1 ovarian was greater than 100 µM in each case.

Take `Nc1ccc(S(=O)(=O)Nc2nc3ccccc3nc2N2CCCCC2)cc1`: the TGI in the assay with SK-MEL-28 melanoma, with T-47D breast, with COLO 205 colon, with SK-OV-3 ovarian, in the assay on MDA-N and with SF-295 CNS was greater than 100 µM in each case. Besides, the TGI with SF-268 CNS, in the assay with U251 CNS and with IGROV1 ovarian was greater than 100 µM each time.

Consider `NC(=O)C(=CNC(=S)c1ccncc1)C(N)=O`, for which the TGI with T-47D breast, in the assay on COLO 205 colon, in the assay with SK-OV-3 ovarian, with MDA-N, with SF-295 CNS and in the assay with SF-268 CNS was greater than 100 µM in each case. Also, the TGI with U251 CNS and in the assay on IGROV1 ovarian was greater than 100 µM in each case.

With `Cc1cn(C(C)OCCN2C(=O)c3ccccc3C2=O)c(=O)[nH]c1=O` (configuration not stated), the TGI in the assay with SK-MEL-28 melanoma, in the assay on A498 renal, in the assay with T-47D breast, in the assay with COLO 205 colon, in the assay on MDA-N and with SF-295 CNS was greater than 100 µM throughout. The TGI with U251 CNS and in the assay with IGROV1 ovarian was greater than 100 µM each time.
